Measured values as given in article PMC10720538, “Population pharmacokinetic modeling and target attainment analyses of rezafungin for the treatment of candidemia and invasive candidiasis” (Antimicrobial Agents and Chemotherapy, 2023).
*1 amine or outer side, *2 acyl side, *3 side chain or, on linkers, in order; H or OH if unused. Where a SMILES comes first, the peptide text is derived from it. Bridges are numbered along the chain shown (N, C = ends). [ ]: non-standard residue; d: D form. The star is where a group is joined. Orn(4R-OH,5R-OCH2CH2NMe3+) = C[N+](C)(C)CCO[C@@H](N[*:3])[C@H](O)C[C@H](N[*:1])C(=O)[*:2]; pTerphenylCO(4''-OnC5H11) = CCCCCOc1ccc(-c2ccc(-c3ccc(C(=O)*)cc3)cc2)cc1; hTyr(3S-OH,4S-OH) = N[C@H](C(=O)O)[C@H](O)[C@@H](O)c1ccc(O)cc1; Pro(3S-OH,4S-Me) = C[C@H]1CN[C@H](C(=O)O)[C@H]1O; Hyp = O=C(O)[C@@H]1C[C@@H](O)CN1

Key:
[1] = cited from earlier work
Description: FIG 4 Probability of pharmacokinetic/pharmacodynamic target attainment for 400 mg rezafungin against Candida species using CLSI methodology. f, free. TEXT PRINTED IN THE PICTURE: no label printed: Candida albicans − fAUC/MIC Targets: CLSI Target: Stasis 20.5; Candida albicans − fAUC/MIC Targets: CLSI Target: 1-Log Drop in CFU 37.2; Candida glabrata − fAUC/MIC Targets: CLSI Target: Stasis 0.5; Candida glabrata − fAUC/MIC Targets: CLSI Target: 1-Log Drop in CFU 2.94; Candida parapsilosis − fAUC/MIC Targets: CLSI Target: Stasis 18.2; Candida auris − fAUC/MIC Targets: CLSI Target: Stasis 12.1; Can ... || It is noted that the target attainment (TA) methodology uses the simulated fAUC0–168h/MIC ratios; therefore, the value of plasma protein binding (PPB) influences this analysis. The free fraction of rezafungin used in the analysis was 2.6%, obtained from measuring PPB in plasma from healthy subjects. […] While there are still questions in the scientific community about how to verify information from the nonclinical model to support PK/PD-b ... || Using each simulated patient’s Bayesian PK parameters and dose amounts, simulations were performed to obtain plasma concentration profiles. […] For the purposes of target attainment analyses, AUC0–168h after the first dose was used (day 1). […]

Candida parapsilosis = conditions: ref Lepak et al., 2018 (e02154-17), cited from earlier work
Description: TABLE 4 Nonclinical pharmacokinetic/pharmacodynamic targets, by species^a^,^b^,^c | column: Method; Stasis / fAUC0–168h/MIC median || FIG 4 Probability of pharmacokinetic/pharmacodynamic target attainment for 400 mg rezafungin against Candida species using CLSI methodology. f, free. […] This has been observed for other echinocandins and appears to be limited to nonclinical testing as C. parapsilosis responds well clinically to echinocandin therapy despite the intrinsically elevated MICs of this species ([29]). It is believed that the C. parapsilosis strains utilized in the model (more than 80% of which were not suitable) are highly fit or virulent and therefore may result in elevated targets ([30]).

[2] = Simulated exposure measures after a single 400 mg dose from individual Bayesian PK estimates, with forest plots of covariate effects; type: in vivo, human; conditions: for Half-life: from simulated concentrations during week 2 after the last dose; for Clearance: individual model-based estimates (CL); for AUC0–168h / Cmax / Cmin, 168h: single 400 mg IV dose, simulated; for Total volume of distribution at steady state: sum of individual model-based central and peripheral volumes
Description: To illustrate the relative differences in the impact of the covariates included in the final model on the exposure of rezafungin, forest plots were constructed using simulated exposure for the subjects in the analysis data set, following a single dose of 400 mg. […] Though statistically significant and included in the final model, the GMR rezafungin exposure and 90% CI of each covariate effect were not far outside of the default no effect bounds of 0.8 and 1.25.
Age was not determined to be a significant covariate of rezafungin exposure. Sixty-three patients were aged 65 years or older, with the oldest patient being […]. Thirty-eight patients were aged 65 to <75, and 25 patients were aged 75 to 89 years old. The GMR (90% CI) of AUC0–168h of these two age groups were 0.95 (0.85, 1.05) and 1.20 (1.06, 1.36), respectively, compared to patients 24 to <65 years old (n = 104). The change in exposure in patients 65 years or older is not deemed clinically meaningful.
The final PK model of rezafungin, the individual empirical Bayesian PK parameter estimates, and the individual dosing histories were used to simulate dense PK profiles for each subject using the R package mrgsolve ([33]).

[3] = healthy subjects, n = 94, geometric mean (geometric %CV)
[4] = healthy subjects, n = 94, mean (SD), SD
[5] = hepatic impairment, uninfected, n = 16, geometric mean (geometric %CV)
[6] = hepatic impairment, uninfected, n = 16, mean (SD), SD
[7] = patients, n = 167, geometric mean (geometric %CV)
[8] = patients, n = 167, mean (SD), SD

CCCCCOc1ccc(-c2ccc(-c3ccc(C(=O)N[C@H]4C[C@@H](O)[C@@H](OCC[N+](C)(C)C)NC(=O)[C@@H]5[C@@H](O)[C@@H](C)CN5C(=O)[C@H]([C@@H](C)O)NC(=O)[C@H]([C@H](O)[C@@H](O)c5ccc(O)cc5)NC(=O)[C@@H]5C[C@@H](O)CN5C(=O)[C@H]([C@@H](C)O)NC4=O)cc3)cc2)cc1 [rezafungin] ({pTerphenylCO(4''-OnC5H11)}-[Orn(4R-OH,5R-OCH2CH2NMe3+)]T[Hyp][hTyr(3S-OH,4S-OH)]T[Pro(3S-OH,4S-Me)]; lactam 1-C)
Protein binding ([1]; human (presumed healthy) plasma): 97.4%
free fraction ([1]; plasma from healthy subjects, used to calculate fAUC0–168h): 2.6%
Stasis, fAUC0–168h/MIC median (Candida parapsilosis; CLSI MIC, net fungal stasis, neutropenic mouse): 18.2
maximum effect (Candida parapsilosis; nonclinical model): only achieved stasis
Half-life [2, 3]: 143.368 (9.737) h
Half-life [2, 4]: 144.039 (14.027) h
Half-life [2, 5]: 132.827 (9.457) h
Half-life [2, 6]: 133.372 (12.249) h
Half-life [2, 7]: 149.458 (18.095) h
Half-life [2, 8]: 151.960 (29.086) h
Clearance [2, 3]: 0.229 (20.266) L/h
Clearance [2, 4]: 0.234 (0.048) L/h
Clearance [2, 5]: 0.336 (21.829) L/h
Clearance [2, 6]: 0.343 (0.077) L/h
Clearance [2, 7]: 0.328 (38.396) L/h
Clearance [2, 8]: 0.350 (0.130) L/h
AUC0–168h [2, 3]: 1,070.513 (20.149) μg × h/mL
Cmax [2, 3]: 21.725 (22.466) μg/mL
Cmin, 168h [2, 3]: 3.247 (22.858) μg/mL
AUC0–168h [2, 4]: 1,091.512 (215.164) μg × h/mL
Cmax [2, 4]: 22.244 (4.789) μg/mL
Cmin, 168h [2, 4]: 3.329 (0.741) μg/mL
AUC0–168h [2, 5]: 778.250 (19.012) μg × h/mL
Cmax [2, 5]: 17.061 (16.797) μg/mL
Cmin, 168h [2, 5]: 2.113 (25.916) μg/mL
AUC0–168h [2, 6]: 791.452 (152.248) μg × h/mL
Cmax [2, 6]: 17.291 (3.017) μg/mL
Cmin, 168h [2, 6]: 2.176 (0.533) μg/mL
AUC0–168h [2, 7]: 752.507 (35.100) μg × h/mL
Cmax [2, 7]: 17.715 (35.418) μg/mL
Cmin, 168h [2, 7]: 2.097 (43.351) μg/mL
AUC0–168h [2, 8]: 798.607 (295.120) μg × h/mL
Cmax [2, 8]: 18.761 (6.448) μg/mL
Cmin, 168h [2, 8]: 2.292 (1.072) μg/mL
Fold change in AUC0-168h relative to reference, GMR (90% CI) ([2]; single 400 mg dose, Phase 2/3 patients, BMI obese (≥30 kg/m^2), n = 36, vs optimum BMI): 0.77 (0.69, 0.86)
Fold change in AUC0-168h relative to reference, GMR (90% CI) ([2]; single 400 mg dose, Phase 2/3 patients, BMI overweight (25 to <30 kg/m^2), n = 40, vs optimum BMI): 0.84 (0.75, 0.94)
Fold change in AUC0-168h relative to reference, GMR (90% CI) ([2]; single 400 mg dose, Phase 2/3 patients, BMI underweight (<18.5 kg/m^2), n = 17, vs optimum BMI): 1.03 (0.88, 1.20)
Fold change in AUC0-168h relative to reference, GMR (90% CI) ([2]; single 400 mg dose, Phase 2/3 patients, age (y) [65,75), n = 38, vs 24 to <65 years): 0.95 (0.85, 1.05)
Fold change in AUC0-168h relative to reference, GMR (90% CI) ([2]; single 400 mg dose, Phase 2/3 patients, age (y) [75,89], n = 25, vs 24 to <65 years): 1.20 (1.06, 1.36)
higher AUC0–168h in female subjects ([2]; single 400 mg dose, Phase 2/3 patients, female vs male): 21%
Fold change in AUC0-168h relative to reference, GMR (90% CI) ([2]; single 400 mg dose, Phase 2/3 patients, kidney failure (CrCL <15 mL/min) vs normal renal function): 1.16 (0.96, 1.39)
Fold change in AUC0-168h relative to reference, GMR (90% CI) ([2]; single 400 mg dose, Phase 2/3 patients, mild renal impairment (CrCL 60 to 89 mL/min) vs normal renal function): 0.95 (0.85, 1.06)
Fold change in AUC0-168h relative to reference, GMR (90% CI) ([2]; single 400 mg dose, Phase 2/3 patients, moderate renal impairment (CrCL 30 to 59 mL/min) vs normal renal function): 1.23 (1.11, 1.36)
Fold change in AUC0-168h relative to reference, GMR (90% CI) ([2]; single 400 mg dose, Phase 2/3 patients, severe renal impairment (CrCL 15 to 29 mL/min) vs normal renal function): 1.01 (0.88, 1.16)
Total volume of distribution at steady state [2, 3]: 42.312 (22.744) L
Total volume of distribution at steady state [2, 4]: 43.410 (10.265) L
Total volume of distribution at steady state [2, 5]: 56.279 (19.744) L
Total volume of distribution at steady state [2, 6]: 57.264 (10.702) L
Total volume of distribution at steady state [2, 7]: 62.434 (40.964) L
Total volume of distribution at steady state [2, 8]: 67.451 (27.744) L
